Results taken from patent US20240043444A1, “METHODS FOR TREATING SPINOCEREBELLAR ATAXIA TYPE 3” (PTC Therapeutics, Inc., priority 2021, published 2024).
pIC50: −log10 of the molar value.

Columns and labels:
[1] = test system: ATXN3 Pre-mRNA (exon 4 skipping); assay: RT-qPCR Assay to Quantify Exon 4 Skipping in ATXN3 Pre-mRNA in Cells; type: cell-based; settings: cells incubated with compound 24 h, normalised to GAPDH, 7-point concentration curve
Experimental: (§1) Test compounds were serially diluted 3.16-fold in 100% DMSO to generate a 7-point concentration curve. Aliquots of 0.5 μL of diluted compounds were transferred to a 96-well flat bottom plate by a liquid handler. An aliquot of 0.5 μL DMSO was also transferred to separate wells and used as controls. Duplicate samples were set up for each compound concentration and for the DMSO control.
Cells were thawed and incubated in cell culture media (DMEM, 10% FBS, and 1% antibiotic cocktail) for 72 h. Cells were trypsinized, counted, and re-suspended to a concentration of 100,000 cells/mL in cell culture media. A 100 μL aliquot of the cell suspensions were plated at 10,000 cells per well in the compound containing 96 well microtiter plate and incubated for in a cell culture incubator (37° C., 5% CO2, 100% relative humidity).
After 24 h, media was aspirated from the cells and 50 μL of the RCL2 lysis buffer (10 mM Tris-HCL pH 7.4, 150 mM NaCl, 0.33% IGEPAL® CA-630) was added to each well and incubated at room temperature for 1 min. Chilled nuclease free water (50 μL per well) was added and the plates were immediately transferred on ice. After 1 min on ice, plates were frozen at −80° C. overnight.
Preparation of RT-qPCR Reaction Mixture:
An aliquot of 2 μL/well of the cell lysates was transferred using the liquid handler to the Armadillo 384-Well PCR plate containing 8 μL/well of the RT-qPCR reaction mixture that was prepared as detailed above. The plates were then sealed with MicroAmp™ Optical Adhesive Film followed by spinning down for 1 min and placed in the CFX384 thermocycler (BioRad).
The RT-qPCR was carried out at the following temperatures for the indicated time: • Step 1: 48° C. (30 min) • Step 2: 95° C. (10 min) • Step 3: 95° C. (15 sec) • Step 4: 60° C. (1 min); then, repeated Steps 3 and 4 for a total of 40 cycles.
The percent exon 4 skipping was calculated for each dose of compound treatment using Equations 1 and 2.
Data were fit to a dose response curve and the IC50 was interpolated using XLfit® statistical and curve fitting package.
An IC50 value between >2.0 μM and ≤3.0 μM is indicated by one star (*). […] IC50 value between >0.5 μM and ≤1.0 μM is indicated by four stars (****). An IC50 value ≤0.5 μM is indicated by five stars (*****).

[2] = test system: Endogenous Total ATXN3 (tATXN3) Protein; assay: Endogenous Total ATXN3 (tATXN3) Protein Assay (MSD immunoassay of cell lysates); type: cell-based; settings: cells incubated with compound 48 h; 7-point concentration curve; MSD plate readout
Experimental: Meso Scale Discovery (MSD) 96-well or 384-well plates were coated overnight at 4° C. with Ataxin 3 mouse monoclonal antibody (Invitrogen, MA3-082) at a concentration of […] in PBS (30 μL per well). Plates were then washed three times with 300 μL wash buffer (0.05% TWEEN®-20, polyethylene glycol sorbitan monolaurate, in PBS) and blocked (Meso Scale Diagnostics, R93BA-1; 5% BSA in PBS) for 2 h at room temperature with rotational shaking and then washed three times with wash buffer.
as §1
Cells were thawed and incubated in cell culture media (DMEM, 10% FBS, and 1% antibiotic cocktail) for 72 h. Cells were trypsinized, counted, and re-suspended to a concentration of 100,000 cells/mL in cell culture media. A 100 μL aliquot of the cell suspensions were plated at 10,000 cells per well in the compound containing 96 well microtiter plate and incubated for in a cell culture incubator (37° C., 5% CO2, 100% relative humidity). After 48 h, the medium was removed and 50-100 μL of lysis buffer (Meso Scale Diagnostics, R60TX-2) containing 1× halt protease inhibitor cocktail of (Thermo Scientific, Halt™ Protease Inhibitor Cocktail, 78430) per well was added to cells to provide a “cell lysate”. The plate was placed on a shaker at 4° C. for 30 minutes, then stored at −80° C.
Cell lysate samples (25 μL) were transferred to the antibody-coated MSD plate and incubated overnight at 4° C. After removal of the lysates, the plate was washed three times with wash buffer, and 25 μL of Ataxin 3 recombinant rabbit monoclonal antibody (Invitrogen, #702788) secondary antibody (diluted to 0.25 μg/mL in 0.05% TWEEN®-20 in blocking buffer) was added to each well and incubated with shaking for 1-2 h at room temperature. Following incubation with the secondary antibody, the wells were rinsed with wash buffer and then 25 μL of Anti Rabbit Antibody Goat SULFO-TAG Labeled (Meso Scale Diagnostics, R32AB-1) detecting antibody (diluted to 0.25 μg/mL in 0.05% TWEEN®-20 in blocking buffer) was added to each well and incubated with shaking for 1 h at room temperature. After rinsing three times with wash buffer, 150 μL of Read Buffer T with surfactant (tris-based buffer containing tripropylamine, Meso Scale Diagnostics, R92TC-1) were added to each empty well, and the plate was imaged on a SI 6000 imager (MSD) according to manufacturers' instructions provided for 96- or 384-well plates.

SMILES	pIC50 [1]	pIC50 [2]	IC50 (exon 4 skipping in ATXN3 pre-mRNA) [1]	IC50 (average, total ATXN3 protein) [2]
CC(C)[C@H](N)Cc1cc2nc(Cl)nc(NCc3ccco3)c2s1 [Cpd 5, 6-[(2R)-2-amino-3-methylbutyl]-2-chloro-N-[(furan-2-yl)methyl]thieno[3,2-d]pyrimidin-4-amine]	6.00 to 6.30	≥ 6.30		
CC(C)(C)[C@H](N)Cc1cc2nc(Cl)nc(NCc3ccco3)c2s1 [Cpd 7, 6-[(2R)-2-amino-3,3-dimethylbutyl]-2-chloro-N-[(furan-2-yl)methyl]thieno[3,2-d]pyrimidin-4-amine]			inactive	inactive
Cc1c(C[C@H](C)N)sc2c(NCc3ccco3)nc(Cl)nc12 [Cpd 12, 6-[(2S)-2-aminopropyl]-2-chloro-N-[(furan-2-yl)methyl]-7-methylthieno[3,2-d]pyrimidin-4-amine]	≥ 6.30	≥ 6.30		
Cc1nc(NCc2ccco2)c2sc(C[C@H](C)N)c(C)c2n1 [Cpd 15, 6-[(2S)-2-aminopropyl]-N-[(furan-2-yl)methyl]-2,7-dimethylthieno[3,2-d]pyrimidin-4-amine]	≥ 6.30	6.00 to 6.30		
Cc1csc2c(NCc3ccncc3)nc(Cl)nc12 [Cpd 23, 2-chloro-7-methyl-N-[(pyridin-4-yl)methyl]thieno[3,2-d]pyrimidin-4-amine]			inactive	inactive
Cc1ccc(CNc2nc(Cl)nc3c(C)c(C[C@H](C)N)sc23)o1 [Cpd 24, 6-[(2S)-2-aminopropyl]-2-chloro-7-methyl-N-[(5-methylfuran-2-yl)methyl]thieno[3,2-d]pyrimidin-4-amine]	5.70 to 5.82	< 5.70		
Cc1csc(CNc2nc(Cl)nc3c(C)c(C[C@H](C)N)sc23)n1 [Cpd 27, 6-[(2S)-2-aminopropyl]-2-chloro-7-methyl-N-[(4-methyl-1,3-thiazol-2-yl)methyl]thieno[3,2-d]pyrimidin-4-amine]	5.52 to 5.70			inactive
Cc1c(C[C@H](C)N)sc2c(NCc3cccs3)nc(Cl)nc12 [Cpd 28, 6-[(2S)-2-aminopropyl]-2-chloro-7-methyl-N-[(thiophen-2-yl)methyl]thieno[3,2-d]pyrimidin-4-amine]	≥ 6.30	≥ 6.30		
Cc1c(C[C@H](C)N)sc2c(NCc3nccs3)nc(Cl)nc12 [Cpd 29, 6-[(2S)-2-aminopropyl]-2-chloro-7-methyl-N-[(1,3-thiazol-2-yl)methyl]thieno[3,2-d]pyrimidin-4-amine]	≥ 6.30	≥ 6.30		
Cc1ccoc1CNc1nc(Cl)nc2c(C)c(C[C@H](C)N)sc12 [Cpd 30, 6-[(2S)-2-aminopropyl]-2-chloro-7-methyl-N-[(3-methylfuran-2-yl)methyl]thieno[3,2-d]pyrimidin-4-amine]	5.82 to 6.00	5.70 to 5.82		
Cc1cnc(CNc2nc(Cl)nc3c(C)c(C[C@H](C)N)sc23)s1 [Cpd 31, 6-[(2S)-2-aminopropyl]-2-chloro-7-methyl-N-[(5-methyl-1,3-thiazol-2-yl)methyl]thieno[3,2-d]pyrimidin-4-amine]	5.52 to 5.70	< 5.70		
Cc1c(C[C@H](C)N)sc2c(NCc3ccc(F)s3)nc(Cl)nc12 [Cpd 33, 6-[(2S)-2-aminopropyl]-2-chloro-N-[(5-fluorothiophen-2-yl)methyl]-7-methylthieno[3,2-d]pyrimidin-4-amine]	≥ 6.30	≥ 6.30		
Cc1c(C[C@H](C)N)sc2c(NCc3ccncc3F)nc(Cl)nc12 [Cpd 35, 6-[(2S)-2-aminopropyl]-2-chloro-N-[(3-fluoropyridin-4-yl)methyl]-7-methylthieno[3,2-d]pyrimidin-4-amine]	≥ 6.30	≥ 6.30		
Cc1c(C[C@H](C)N)sc2c(NCc3ccco3)nc(Br)nc12 [Cpd 38, 6-[(2S)-2-aminopropyl]-2-bromo-N-[(furan-2-yl)methyl]-7-methylthieno[3,2-d]pyrimidin-4-amine]	≥ 6.30	≥ 6.30		
Cc1c(C[C@H](C)N)sc2c(NCc3ccno3)nc(Cl)nc12 [Cpd 39, 6-[(2S)-2-aminopropyl]-2-chloro-7-methyl-N-[(1,2-oxazol-5-yl)methyl]thieno[3,2-d]pyrimidin-4-amine]	≥ 6.30	≥ 6.30		
C[C@H](N)Cc1sc2c(NCc3ccco3)nc(Cl)nc2c1Br [Cpd 40, 6-[(2S)-2-aminopropyl]-7-bromo-2-chloro-N-[(furan-2-yl)methyl]thieno[3,2-d]pyrimidin-4-amine]	≥ 6.30	≥ 6.30		
Cc1c([C@H](C)N)sc2c(NCc3ccco3)nc(Cl)nc12 [Cpd 47, 6-[(1S)-1-aminoethyl]-2-chloro-N-[(furan-2-yl)methyl]-7-methylthieno[3,2-d]pyrimidin-4-amine]			inactive	inactive
Cc1c(C[C@@H](N)CCF)sc2c(NCc3ccco3)nc(Cl)nc12 [Cpd 51, 6-[(2S)-2-amino-4-fluorobutyl]-2-chloro-N-[(furan-2-yl)methyl]-7-methylthieno[3,2-d]pyrimidin-4-amine]	≥ 6.30	≥ 6.30		
Cc1c(C[C@@H]2CCOC(=O)N2)sc2c(NCc3ccco3)nc(Cl)nc12 [Cpd 52, (4S)-4-[(2-chloro-4-{[(furan-2-yl)methyl]amino}-7-methylthieno[3,2-d]pyrimidin-6-yl)methyl]-1,3-oxazinan-2-one]		< 5.70	inactive	
Cc1c(C[C@H](C)N)sc2c(NCc3ncccn3)nc(Cl)nc12 [Cpd 55, 6-[(2S)-2-aminopropyl]-2-chloro-7-methyl-N-[(pyrimidin-2-yl)methyl]thieno[3,2-d]pyrimidin-4-amine]	5.52 to 5.70	< 5.70		
Cc1c(C[C@@H](N)CO)sc2c(NCc3cccs3)nc(Cl)nc12 [Cpd 56, (2R)-2-amino-3-(2-chloro-7-methyl-4-{[(thiophen-2-yl)methyl]amino}thieno[3,2-d]pyrimidin-6-yl)propan-1-ol]	≥ 6.30	≥ 6.30		
Cc1c(C2CCNC2)sc2c(NCc3ccco3)nc(Cl)nc12 (stereo not drawn) [Cpd 57, 2-chloro-N-[(furan-2-yl)methyl]-7-methyl-6-(pyrrolidin-3-yl)thieno[3,2-d]pyrimidin-4-amine]			inactive	inactive
Cc1c(C[C@H](C)N)sc2c(NCc3ncccc3F)nc(Cl)nc12 [Cpd 59, 6-[(2S)-2-aminopropyl]-2-chloro-N-[(3-fluoropyridin-2-yl)methyl]-7-methylthieno[3,2-d]pyrimidin-4-amine]	5.82 to 6.00	5.70 to 5.82		
Cc1c(C[C@H](C)N)sc2c(NCc3cccnc3F)nc(Cl)nc12 [Cpd 60, 6-[(2S)-2-aminopropyl]-2-chloro-N-[(2-fluoropyridin-3-yl)methyl]-7-methylthieno[3,2-d]pyrimidin-4-amine]	5.52 to 5.70	< 5.70		
